Results taken from PubChem BioAssay AID1956 (SRMLSC, 2009).
Calls of active or inactive are those of the source. No stated cut-off is given here; in the data, active means maximum fold increase above about 1.5; inconclusive means no clear call, values can overlap the other calls; inactive means below that; tested in PC3 cells.

The compounds below were run on HSV replication augmentation in cells, fold increase (assay: compounds boosting herpes simplex virus growth – fold increase, host cell viability (AID 1956)).

| SMILES | EC50 |
| --- | --- |
| COc1cccc(N2CCN(Cc3nc4scc(-c5ccccc5)c4c(=O)[nH]3)CC2)c1 | 21.9 µM (inactive) |
| CC1(C)CC(=O)C(C=Nc2ccc(C(=O)c3ccccc3)cc2N=CC2=C(O)CC(C)(C)CC2=O)=C(O)C1 | > 25 µM (inactive) |
| CCOC(=O)C1=C(N)Oc2c(oc(CO)cc2=O)C1c1ccc(Cl)cc1 (centres undefined) | > 25 µM (inactive) |
| CCOC(=O)COc1ccc(S(=O)(=O)Nc2ccc(C)cc2)cc1 | > 25 µM (inactive) |
| Cc1ccc(Cn2c(=N)n(CC(O)c3ccco3)c3ccccc32)cc1 (centres undefined) | > 25 µM (inactive) |
| Cn1cc(Br)c(NC(=O)/C=C/C(=O)O)n1 | > 25 µM (inactive) |
| COC(=O)C1=C(O)C(C(=O)OC)C(c2ccc(C)cc2)C(C#N)(C#N)C1c1ccc(C)cc1 (centres undefined) | > 25 µM (inactive) |
| NC(=S)Nc1cc(Cl)cc(Cl)c1 | > 25 µM (inactive) |
| O=C1CC(/C=C/c2ccccn2)=Nc2ccccc2N1 | 22.8 µM (inactive) |
| O=C(Nc1nc(-c2ccccn2)cs1)c1cccc(-n2cnnn2)c1 | > 25 µM (inactive) |
| CCN(CC)c1ccc(CC2C(=O)N(C)C(=O)N(C)C2=O)cc1 | > 25 µM (inactive) |
| CN1C(=O)C(C2c3ccccc3C(=O)N2Cc2ccc([N+](=O)[O-])cc2)C(=O)N(C)C1=O (centres undefined) | > 25 µM (inactive) |
| COc1ccccc1OP(=O)(Nc1cccnc1)Oc1ccccc1OC | > 25 µM (inactive) |
| CCCN1C(=O)C2(C(C(=O)c3ccc(C)o3)=C(O)C(=O)N2CCCOC)c2ccccc21 (centres undefined) | > 25 µM (inactive) |
| CC(C)(C)c1ccc(Cn2c(=N)n(CC(O)c3ccco3)c3ccccc32)cc1 (centres undefined) | 11.4 µM (inactive) |
| N#C/C(=C\Nc1ccc2cn[nH]c2c1)c1nc(-c2ccc(Cl)cc2)cs1 | 24.4 µM (inactive) |
| CC1=CC(C)(C)Nc2ccc(OC(=O)CN3C(=O)C4CCCCC4C3=O)cc21 (centres undefined) | > 25 µM (inactive) |
| CC(C)Oc1ncnc2c1[nH]c1ccccc12 | 3.18 µM (inactive) |
| Cc1cccc(CSc2nnc(-c3cnccn3)n2C)c1 | > 25 µM (inactive) |
| NNc1nc(-c2ccccc2Cl)nc2sc3c(c12)CCCC3 | > 25 µM (inactive) |
| Cc1ccc(S(=O)(=O)N(C(=O)c2ccncc2)c2ccc(OC(=O)c3ccncc3)c3ccccc23)cc1 | 18.3 µM (inactive) |
| Cc1ccccc1C(=O)NNc1ccc([N+](=O)[O-])cc1 | > 25 µM (inactive) |
| Cc1cccc2nc3c(nc12)-c1ccccc1C3=O | > 25 µM (inactive) |

| SMILES | EC50 |
| --- | --- |
| OC(CNCc1ccccc1)c1ccccc1 (centres undefined) | > 25 µM (inactive) |
| CCOCCCNC(=S)N1CCCN(c2nc3cc(C)c(C)cc3cc2C#N)CC1 | > 25 µM (inactive) |
| Nc1c(Cl)ncnc1N/N=C/c1ccc2ccccc2n1 | 4.3 µM (inactive) |
| CN1C(=O)CC(c2ccco2)Sc2ccccc21 (centres undefined) | > 25 µM (inactive) |
| C[N+]1=C(/C=C/Nc2ccccc2Cl)C(C)(C)c2ccccc21 | > 25 µM (inactive) |
| N#C/C(=C\c1ccccc1[N+](=O)[O-])C(=O)NC1CCCCC1 | > 25 µM (inactive) |
| O=C1NC(c2ccccc2)=N/C1=C/c1ccco1 | > 25 µM (inactive) |
| COc1ccc(CCc2nnc(CCC(=O)N(C)Cc3ccnc4ccccc34)o2)cc1 | 13.1 µM (inactive) |
| NS(=O)(=O)c1ccc(NC(=O)COC(=O)c2c3c(nc4ccccc24)/C(=C\c2ccc4c(c2)OCO4)CCC3)cc1 | > 25 µM (inactive) |
| COC(=O)c1c(C)[nH]c(O)c1C=Nc1ccc(C(C)C)cc1 | > 25 µM (inactive) |
| Cc1ccc(-n2nc3c(c2NC(=O)c2ccc(OC(C)C)cc2)CS(=O)C3)cc1 (centres undefined) | > 25 µM (inactive) |
| Cc1nc2ccccc2c2oc(C(=O)N3CCc4ccccc4C3)cc12 | > 25 µM (inactive) |
| Cc1ccc(C(=O)NNC2=Nc3cccc4cccc2c34)cc1 | > 25 µM (inactive) |
| CCOCCCNC(=O)CN1C(=O)C(CC)Oc2ccccc21 (centres undefined) | > 25 µM (inactive) |
| CC(C)(C)c1ccc(Oc2ccc(N)cn2)cc1 | > 25 µM (inactive) |
| CCN1C(=O)/C(=C/C=C2\C=CN(CC)c3ccccc32)SC1=S | > 25 µM (inactive) |
| COc1ccc(S(=O)(=O)/N=C2/NC(=O)/C(=C\c3ccco3)S2)cc1 | > 25 µM (inactive) |
| Cc1ccc(Cn2ccc(-c3cnc(-c4ccccc4)s3)n2)cc1 | > 25 µM (inactive) |
| CC(=O)c1cccc(NC(=O)/C=C/c2ccc([N+](=O)[O-])s2)c1 | 19 µM (inactive) |
| Cc1ccc(-c2nc(NC(=O)CSc3nnc4scc(-c5ccccc5)n34)ns2)cc1 | > 25 µM (inactive) |
| CC1(C(O)(C#CCN2CCCCC2)c2ccccc2)CCCC1 (centres undefined) | > 25 µM (inactive) |
| CCc1ccc2[nH]c(=O)c(CN(Cc3ccccc3OC)Cc3nnnn3Cc3ccco3)cc2c1 | > 25 µM (inactive) |
| CC(C)(C)c1cc(-c2n[nH]c(=S)n2-c2ccccc2F)n[nH]1 | > 25 µM (inactive) |

| SMILES | EC50 |
| --- | --- |
| C=CCN1C(=O)[C@]2(c3ccccc31)C1CCCC=C1C(C#N)=C(N)C2(C#N)C#N (some centres undefined) | > 25 µM (inactive) |
| CC(C(=O)c1c[nH]c2ccccc12)N1CCc2ccccc2C1 (centres undefined) | > 25 µM (inactive) |
| O=C(CC1NCCNC1=O)NC1Cc2ccccc2C1 (centres undefined) | > 25 µM (inactive) |
| COCc1ccc(C(=O)N2CCCC(C(=O)c3cc(F)ccc3F)C2)s1 (centres undefined) | > 25 µM (inactive) |
| CS(=O)(=O)N1CC2CCCN2c2cc(C(F)(F)F)ccc21 (centres undefined) | > 25 µM (inactive) |
| O=C1NC(=O)N(Cc2ccco2)C(=O)/C1=C\c1cccn1CCOc1ccc(Cl)cc1 | > 25 µM (inactive) |
| COc1ccccc1NC(=O)c1ccc(Br)o1 | > 25 µM (inactive) |
| CCCCn1ccnc1C(=O)c1cccc(S(=O)(=O)N2CC(C)CC(C)C2)c1 (centres undefined) | > 25 µM (inactive) |
| O=S(=O)(Nc1ccc(Cc2ccncc2)cc1)c1ccc(Cl)c(Cl)c1 | > 25 µM (inactive) |
| O=C(O)/C(=C\c1ccc(Br)cc1)c1ccc(S(=O)(=O)N2CCCCC2)s1 | > 25 µM (inactive) |
| O=C(O)/C=C/C(=O)Nc1ccc(-n2ccc(C(F)(F)F)n2)cc1 | > 25 µM (inactive) |
| O=C(Nc1ccccc1C(=O)Nc1ccccc1C(=O)NCc1ccco1)c1ccco1 | > 25 µM (inactive) |
| COc1ccc(OC2C(=O)N(Cc3ccc4c(c3)OCO4)C2c2sccc2C)cc1 (centres undefined) | > 25 µM (inactive) |
| C=CCNC(=S)Nc1ccc2nc(C)oc2c1 | > 25 µM (inactive) |
| Cc1cccc(N=C2NC(=O)/C(=C/C=C/c3ccco3)S2)c1 | > 25 µM (inactive) |
| CCOC(=O)c1cnc(COc2ccc(OC)cc2)[nH]c1=O | > 25 µM (inactive) |
| Cc1ccc(-c2nc(CSCC(=O)N3CCN(c4ccccn4)CC3)c(C)o2)cc1 | 15.7 µM (inactive) |
| COc1cccc(C2C=C(c3ccc(OC)cc3OC)Nc3nnnn32)c1 (centres undefined) | > 25 µM (inactive) |
| CCOC(=O)c1c(NC(=O)c2cc3n(n2)C(C(F)(F)F)CC(c2cccs2)N3)sc(C)c1C (centres undefined) | 16.6 µM (inactive) |
| O=C(O)c1ccc(/C=N/Nc2ncc(C(F)(F)F)cc2Cl)cc1 | > 25 µM (inactive) |
| CNC(=S)NNC(=O)c1ccc(=O)n(Cc2ccc(Cl)cc2Cl)c1 | > 25 µM (inactive) |
| Oc1ccc(N=Nc2cccc(C(F)(F)F)c2)cc1C=Nc1ccc(N2CCOCC2)cc1 | 18.8 µM (inactive) |
| CC(C)CC(N=C1NC(C)(C)Cc2ccccc21)C(=O)O (centres undefined) | > 25 µM (inactive) |

| SMILES | EC50 |
| --- | --- |
| COc1cccc(C(=O)N2CCN(CCCc3ccccc3)CC2)c1OC | > 25 µM (inactive) |
| Nc1ccccc1Nc1cc(-c2ccccc2)[nH]n1 | 10.9 µM (inactive) |
| O=c1cc(N2CCCCC2)c(-c2ccccc2)nn1Cc1c(Cl)cccc1Cl | > 25 µM (inactive) |
| CSc1nc(Cl)c(Cc2ccc(OC(C)C)cc2)c(N(C)C)n1 | > 25 µM (inactive) |
| CC(=O)Nc1ccc(S(=O)(=O)Nc2cc(-c3ccccc3)nn2C)cc1 | > 25 µM (inactive) |
| CCOC(=O)c1c(NC(=O)C2COc3ccccc3O2)sc2c1CCN(Cc1ccccc1)C2 (centres undefined) | > 25 µM (inactive) |
| CCN(CC)c1ccc(/C=N/Nc2nc(C)cc(C)n2)cc1 | 23.2 µM (inactive) |
| O=C1CCCC2=C1C(c1ccc(Cl)cc1)n1c(s/c(=C\c3ccc4ccncc4c3)c1=O)=N2 (centres undefined) | > 25 µM (inactive) |
| CN(CC1CCOCC1)C(=O)CC1C(=O)NCCN1CC1CCCCC1 (centres undefined) | > 25 µM (inactive) |
| Cc1ccc(Oc2nnc(-c3ccccc3)c3ccccc23)cc1 | > 25 µM (inactive) |
| N#CC1=C2N=C(N)c3ccccc3N2C2=C(C(=O)CCC2)C1c1ccc(Cl)cc1 (centres undefined) | > 25 µM (inactive) |
| CCc1ccc(NC(=O)COc2ccc(/C=C(/C#N)c3nc4ccccc4[nH]3)cc2OC)cc1 | 24 µM (inactive) |
| O=C(c1cc(COc2ccc3ncccc3c2)on1)N1CCC(O)CC1 | > 25 µM (inactive) |
| Nc1cccnc1Sc1cc(Cl)c(Cl)cc1Cl | > 25 µM (inactive) |
| Cc1cc(=O)[nH]c(SCC(=O)/C=C2\N(C)c3ccccc3C2(C)C)n1 | > 25 µM (inactive) |
| Cn1c(C(=O)Nc2ccc3c(c2)OCCO3)cc2c(=O)n(C)c3ccccc3c21 | > 25 µM (inactive) |
| COc1ccc(C2C(C#N)=C(N)N(c3sc4c(c3C#N)CCCC4)C3=C2C(=O)CC(C)(C)C3)cc1 (centres undefined) | > 25 µM (inactive) |
| CC(C)N(C(=O)N1CCC(c2nc(-c3ccncc3)no2)CC1)C(C)C | > 25 µM (inactive) |
| O=C(C1=NN[C@@H]2C(=O)N(c3cccc(F)c3)C(=O)[C@H]12)c1cnccn1 | > 25 µM (inactive) |
| CCn1c(/C=C/N(C)c2ccccc2)[n+](CC)c2ccc(Cl)cc21 | 10.2 µM (inactive) |
